Type in all cases: cell-based
The subject of assay [1] is MEIS1 gene expression. The experiment in a line: Inhibition of MEIS1 gene expression in human tumor cells (qRT-PCR), OCI-AML3. The note with it: OCI-AML-3, OCI-AML3 (carrying NPM1c), 48 hours of incubation, relative MEIS1 gene expression vs GAPDH. The source says:
(§1) Experimental Example 3: Evaluation of Inhibitory Activity of Compounds Against MEISI Gene Expression in Human Tumor Cells
(§2) The effect of test samples on MEIS1 gene expression in vitro cultured human leukemia cells MV-4-11 (carrying MLL-AF4), MOLM-13 (carrying MLL-AF9), and OCI-AML3 (carrying NPM1c) was studied.
(§3) • Human acute lymphoblastic leukemia cells MV-4-11, purchased from American Type Culture Collection, Catalog Number: CRL-9591; • Human acute myeloid leukemia cells MOLM-13, purchased from COBIOER BIOSCIENCES CO., LTD, Catalog Number: CBP60678; • Human acute myeloid leukemia cells OCI-AML3, purchased from COBIOER BIOSCIENCES CO., LTD, Catalog Number: CBP60817; • MEIS1 Primer/Probe, purchased from IDT, Catalog Number: 40831613; and • GAPDH Primer/Probe, purchased from IDT, Catalog Number: 22214836.
(§4) MV-4-11 cells were cultured in an IMDM medium containing 10% fetal bovine serum, or MOLM-13 and OCI-AML3 cells were cultured in an RPMI-1640 medium containing 20% fetal bovine serum, each supplemented with 100 U·mL^-1 penicillin and 100 µg·mL^-1 streptomycin. These cells were cultured at 37°C with 5% CO2. The suspensions of individual cell lines were prepared in their respective media and seeded into 48-well plates at a density of 100,000 cells/well. On the day of the experiment, a compound stock solution was diluted in a 6-fold gradient using DMSO. Each gradient-diluted stock solution was then further diluted 250-fold with a complete medium to prepare a series of working solutions at different concentrations. Next, 250 µL of working solution (containing the complete medium with a 2-fold serial concentration of the test compound or a positive control compound, or containing a control complete medium) was added to each well. After 48 hours of incubation, cells from the 48-well plate were collected into 1 mL centrifuge tubes, centrifuged at 1000 rpm for 5 minutes, and the complete medium was removed. Cells were washed twice with 1 mL PBS and centrifuged to remove PBS. Total RNA was extracted using the RNeasy Mini Kit (250) (QIAGEN, 74106). The threshold cycle (Ct) value for gene expression was determined using the HiScript II U+ One Step qRT-PCR Probe Kit (Vazyme) (Vazyme, Q223-01), with 3 replicates per sample. The prepared reaction mixture was placed in an ABI 7500 real-time PCR instrument, and the reaction proceeded following the procedures below. [formula]
(§5) Next, for the relative MEIS1 gene expression, the concentration (EC50) that inhibits 50% of relative MEIS1 gene expression was calculated using GraphPad Prism 8 software.
On the technique in general: Real-time PCR tracks product formation cycle by cycle.

For assay [2], the system named is MEIS1 gene expression. The experiment in a line: Inhibition of MEIS1 gene expression in human tumor cells (qRT-PCR), MOLM-13. The note with it: MOLM-13 (carrying MLL-AF9), 48 hours of incubation, relative MEIS1 gene expression vs GAPDH.
Source text: as §1, §2, §3, §4, §5

Assay [3] relates to KG-1a (wild-type MLL). The experiment in a line: Inhibition of proliferation of human tumor cells (Alamar Blue, 7 days), KG-1a control cell line. The note with it: 168 h, KG-1a cells (wild-type MLL, control cell line), method calls the value GI50. Summed up: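 Suspension cells were plated, dosed the same day with a graded compound series, and incubated seven days at 37°C under 5% CO2. Growth was then measured by Alamar Blue fluorescence, and the concentration halving proliferation (GI50) was calculated relative to Day 0 and Day 7 vehicle controls.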

With `Cc1nc(F)c2c(-c3ccc(F)cc3C(=O)N3CCOC[C@H]3C)cc(C3CN([C@H](CO[C@@H]4CCCN(C)C4)C(C)C)C3)cn12` [Example 297-1, (3R)-4-[5-fluoro-2-(1-fluoro-3-methyl-6-{1-[(2S)-3-methyl-1-{[(3R)-1-methylpiperidin-3-yl]oxy}butan-2-yl]azacyclobutan-3-yl}imidazo[1,5-a]pyridin-8yl)benzoyl]-3-methylmorpholine], the figures for the EC50 in assay [1] and in assay [2] were 34 nM and 12 nM, respectively. In the same order, the values of `CCN(C(=O)c1cc(F)ccc1-c1cc(C2CN([C@H](CCCN3C4COCC3C4)C(C)C)C2)cn2c(C)ncc12)C(C)C` [Example 423] are 6.1 nM and 2.3 nM. `Cc1nc(F)c2c(-c3ccc(F)cc3C(=O)N3[C@H](C)COC[C@H]3C)cc(C3CN(CC4CCOCC4)C3)cn12` [Example 208]: the IC50 in assay [3] was 20000 nM. Consider `CCS(=O)(=O)N[C@H]1CC[C@H](CN2CC(c3cc(-c4ccc(F)cc4C(=O)N4[C@H](C)COC[C@H]4C)c4c(F)nc(C)n4c3)C2)CC1` [Example 197, N-[(1r,4r)-4-{[3-(8-{2-[(3R,5R)-3,5-dimethylmorpholin-4-carbonyl]-4-fluorophenyl}-1-fluoro-3-methylimidazo[1,5-a]pyridin-6-yl)azacyclobutan-1-yl]methyl}cyclohexyl]ethan-1-sulfonamide], for which, in assay [3], the IC50 is 20000 nM.

On to `CO[C@@H]1CCCN(CCC[C@H](C(C)C)N2CC(c3cc(-c4ccc(F)cc4C(=O)N4CCOC[C@H]4C)c4c(F)nc(C)n4c3)C2)C1` [Example 305], for which the IC50 in assay [3] stood at 20000 nM.

In turn, `Cc1nc(F)c2c(-c3ccc(F)cc3C(=O)N3CCOC[C@H]3C)cc(C3CN(C(CC[C@@H]4COCCN4)C(C)C)C3)cn12` (stereo partly drawn) [Example 371, (3R)-4-{5-fluoro-2-[1-fluoro-3-methyl-6-(1-{4-methyl-1-[(3R)-morpholin-3-yl]pentan-3-yl}azacyclobutan-3-yl)imidazo[1,5-a]pyridin-8-yl]benzoyl}-3-methylmorpholine] returned an EC50 in assay [2] of 1.1 nM. The concentration for half-maximal inhibition (IC50) in assay [3] is over 20000 nM. Take `Cc1nc(F)c2c(-c3ccc(F)cc3C(=O)N3CCOCC3C)cc(C3CN(C(CCCN4CCCC(O)C4)C(C)C)C3)cn12` (centres unmarked) [Example 292]: the IC50 in assay [3] was 20000 nM. In the case of `CNC(=O)N1CCC([C@H](C)N2CC(c3cc(-c4ccc(F)cc4C(=O)N4CCOC[C@H]4C)c4c(F)nc(C)n4c3)C2)CC1` [Example 264-2], the IC50 in assay [3] came to 20000 nM. As for `Cc1nc(F)c2c(-c3ccc(F)cc3C(=O)N3CCOC[C@H]3C)cc(C3CN([C@H](CCCN4CCC(F)CC4)C(C)C)C3)cn12` [Example 314], the results for the EC50 in assay [1] and in assay [2] were 8.9 nM and 3.4 nM, respectively. For `CCNC(=O)N1CCC(CN2CC(c3cc(-c4ccc(F)cc4C(=O)N4CCOC[C@H]4C)c4c(F)nc(C)n4c3)C2)CC1` [Example 261], in assay [3], the IC50 turned out to be 20000 nM. For the compound `COCCN(C)CCCC(C(C)C)N1CC(c2cc(-c3ccc(F)cc3C(=O)N3CCOCC3C)c3cnn(C)c3c2)C1` (centres unmarked) [Example 185], the IC50 in assay [3] was 20000 nM. Regarding `Cc1ncc2c(-c3ccc(F)cc3C(=O)N3CCOC[C@H]3C)cc(C3CN([C@H](CCCN4CCN(C)CC4)C(C)C)C3)cn12` [Example 323-2, (3R)-4-[5-fluoro-2-(3-methyl-6-{1-[(3R)-2-methyl-6-(4-methylpiperazin-1-yl)hexan-3-yl]azacyclobutan-3-yl}imidazo[1,5-a]pyridin-8-yl)benzoyl]-3-methylmorpholine], the EC50 in assay [1] was 17 nM; in assay [2] it was 8.4 nM.

Turning to `Cc1nc(F)c2c(-c3ccc(F)cc3C(=O)N3CCOC[C@H]3C)cc(C3CN([C@H](CO[C@H]4CCCN(C)C4)C(C)C)C3)cn12` [Example 321-2, (3R)-4-[5-fluoro-2-(1-fluoro-3-methyl-6-{1-[(2S)-3-methyl-1-{[(3S)-1-methylpiperidin-3-yl]oxy}butan-2-yl]azacyclobutan-3-yl}imidazo[1,5-a]pyridin-8yl)benzoyl]-3-methylmorpholine], the EC50 turned out to be 32 nM in assay [1] and 10 nM in assay [2]. In the case of `CC(=O)N1CCC(CN2CC(c3cc(-c4ccc(F)cc4C(=O)N4[C@H](C)COC[C@H]4C)c4c(F)nc(C)n4c3)C2)CC1` [Example 205], the IC50 in assay [3] was 20000 nM. Regarding `CCN(C(=O)c1cc(F)ccc1-c1cc(C2CN([C@@H](C)C3CCN(C(=O)CO)CC3)C2)cn2c(C)nc(F)c12)C(C)C` [Example 284-2], the results for the EC50 in assay [1] and in assay [2] were 5.8 nM and 5.9 nM, respectively. Regarding `CC[C@@H](C1CCN(C(C)=O)CC1)N1CC(c2cc(-c3ccc(F)cc3C(=O)N3CCOC[C@H]3C)c3c(F)nc(C)n3c2)C1` [Example 280-1, 1-{4-[(1S)-1-[3-(1-fluoro-8-{4-fluoro-2-[(3R)-3-methylmorpholin-4-carbonyl]phenyl}-3-methylimidazo[1,5-a]pyridin-6-yl)azacyclobutan-1-yl]propyl]piperidin-1-yl}ethan-1-one], the EC50 is 34 nM in assay [1] and 23 nM in assay [2].

Take `COCCN(C)CCCC(C(C)C)N1CC(c2cc(-c3ccc(F)cc3C(=O)N(CC(F)F)C(C)C)c3c(F)nc(C)n3c2)C1` (centres unmarked) [Example 142, N-(2,2-difluoroethyl)-5-fluoro-2-[1-fluoro-6-(1-{6-[(2-methoxyethyl)(methyl)amino]-2-methylhexan-3-yl}azacyclobutan-3-yl)-3-methylimidazo[1,5-a]pyridin-8-yl]-N-(isopropyl)benzamide]: the EC50 in assay [2] stood at 2.3 nM. Further, the IC50 in assay [3] was 3600 nM. On to `CCN(C(=O)c1cc(F)ccc1-c1cc(C2CCN(Cc3ccc(-c4cc(OC)c(OC)nn4)cc3)C2)cn2c(C)ncc12)C(C)C` (centres unmarked) [Example 83], for which the IC50 in assay [3] worked out at 7400 nM.

In turn, `Cc1nc(F)c2c(-c3ccc(F)cc3C(=O)N3CCOC[C@H]3C)cc(C3CN([C@H](CCCN4CCN(C5CC5)CC4)C(C)C)C3)cn12` [Example 350] came in with an EC50 in assay [2] of 4 nM. Besides, the IC50 in assay [3] was determined as 12000 nM. As to `COCCN(C)CCC[C@H](C(C)C)N1CC(c2cc(-c3ccc(F)cc3C(=O)N3[C@H](C)COC[C@H]3C)c3cnn(C)c3c2)C1` [Example 186-2, [(4R)-4-[3-(4-{2-[(3R,5R)-3,5-dimethylmorpholin-4-carbonyl]-4-fluorophenyl}-1-methyl-1H-indazol-6-yl)azacyclobutan-1-yl]-5-methylhexyl](2-methoxyethyl)methylamine], in assay [3], the IC50 was found to be 20000 nM. Consider `CCN(C(=O)c1cc(F)ccc1-c1cc(C2CN(C[C@H]3CC[C@H](NS(=O)(=O)CC)CC3)C2)cn2c(C)nc(F)c12)C(C)C` [Example 137], for which, in assay [2], the EC50 is 9 nM. As for `CO[C@H]1CCCN(CCC[C@H](C(C)C)N2CC(c3cc(-c4ccc(F)cc4C(=O)N4CCOC[C@H]4C)c4c(F)nc(C)n4c3)C2)C1` [Example 306], in assay [3], the IC50 is 20000 nM. On to `CCS(=O)(=O)N[C@H]1CC[C@H](CN2CC(c3cc(-c4ccc(F)cc4C(=O)N(CC(F)F)C(C)C)c4cnc(C)n4c3)C2)CC1` [Example 138], for which a half-maximal response in assay [2] (EC50) required 8 nM. In addition, the IC50 in assay [3] amounted to 20000 nM. Regarding `CCN(C(=O)c1cc(F)ccc1-c1cc(C2(F)CN(C(=O)C3NC4CCC3CC4)C2)cn2c(C)ncc12)C(C)C` [Example 75, N-ethyl-5-fluoro-2-(6-{3-fluoro-1-[(1R,3S,4S)-2-azabicyclo[2.2.2]octan-3-carbonyl]azacyclobutan-3-yl}-3-methylimidazo[1,5-a]pyridin-8-yl)-N-(isopropyl) benzamide], the half-maximal inhibitory concentration (IC50) in assay [3] came to 20000 nM. As for `CCS(=O)(=O)N[C@H]1CC[C@H](CN2CC(c3cc(-c4ccc(F)cc4C(=O)N4CCOC[C@H]4C)c4cnc(C)n4c3)C2)CC1` [Example 134, N-[(1r,4r)-4-{[3-(8-{4-fluoro-2-[(3R)-3-methylmorpholin-4-carbonyl]phenyl}-3-methylimidazo[1,5-a]pyridin-6-yl)azacyclobutan-1-yl]methyl}cyclohexyl]ethan-1-sulfonamide], it took 53 nM to reach a half-maximal effect in assay [2] (EC50). Besides, the IC50 in assay [3] stood at 20000 nM. For the compound `CO[C@@H]1CCN(CCC[C@H](C(C)C)N2CC(c3cc(-c4ccc(F)cc4C(=O)N4CCOC[C@H]4C)c4c(F)nc(C)n4c3)C2)C1` [Example 202], the IC50 in assay [3] came to 20000 nM.

Usually EC50 stands for the concentration at which the effect is half-maximal. Low readings indicate higher potency in that assay, high ones lower potency in that assay. As a reminder, the IC50 is the midpoint of a concentration-inhibition curve.
